Experimental data published in PubChem BioAssay (NCI).
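48-hour exposure; five concentrations; linearly interpolated endpoints. The concentration for full growth arrest is given as TGI.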

Columns and labels:
Assay in all cases: NCI tumour cell line growth inhibition, 48 h
[1] = tested on: MALME-3M melanoma
[2] = tested on: SF-295 CNS
[3] = tested on: OVCAR-5 ovarian
[4] = tested on: SNB-78 CNS
[5] = tested on: HOP-62 NSCLC
[6] = tested on: NCI-H460 lung
[7] = tested on: COLO 205 colon
[8] = tested on: HOP-92 NSCLC
[9] = tested on: UACC-62 melanoma
[10] = tested on: SNB-75 CNS
[11] = tested on: M19-MEL melanoma
[12] = tested on: SW-620 colon
[13] = tested on: EKVX NSCLC
[14] = tested on: SK-MEL-28 melanoma
[15] = tested on: SF-539 CNS
[16] = tested on: HOP-18 NSCLC
[17] = tested on: MOLT-4 leukemia
[18] = tested on: OVCAR-8 ovarian
[19] = tested on: DLD-1 colon
[20] = tested on: UACC-257 melanoma
[21] = tested on: HL-60(TB) leukemia
[22] = tested on: SK-MEL-2 melanoma
[23] = tested on: OVCAR-4 ovarian
[24] = tested on: SN12K1 renal
[25] = tested on: P388 leukemia
[26] = tested on: SN12C renal
[27] = tested on: DMS 114 small cell lung
[28] = tested on: DMS 273 small cell lung
[29] = tested on: NCI/ADR-RES ovarian
[30] = tested on: KM12 colon
[31] = tested on: SK-MEL-5 melanoma
[32] = tested on: K-562 leukemia
[33] = tested on: RPMI-8226 leukemia
[34] = tested on: MCF7 breast
[35] = tested on: KM20L2 colon
[36] = tested on: NCI-H522 lung
[37] = tested on: P388/ADR leukemia
[38] = tested on: HCT-15 colon
[39] = tested on: HCT-116 colon
[40] = tested on: A549 NSCLC
[41] = tested on: HT29 colon
[42] = tested on: XF 498 CNS
[43] = tested on: OVCAR-3 ovarian
[44] = tested on: NCI-H226 lung
[45] = tested on: IGROV1 ovarian
[46] = tested on: LOX IMVI melanoma
[47] = tested on: SF-268 CNS
[48] = tested on: HCC-2998 colon
[49] = tested on: SNB-19 CNS
[50] = tested on: UO-31 renal
[51] = tested on: CCRF-CEM leukemia
[52] = tested on: CAKI-1 renal
[53] = tested on: A498 renal
[54] = tested on: RXF 393 renal
[55] = tested on: U251 CNS
[56] = tested on: SK-OV-3 ovarian
[57] = tested on: NCI-H23 lung

In the case of O=Cc1c(Cn2ccnc2)c2cc([N+](=O)[O-])ccc2n1Cc1ccccc1, the TGI [1] is reported as greater than 100 µM, the TGI [2] is reported as greater than 92.3 µM and the TGI [3] is reported as greater than 100 µM. The TGI [4] was greater than 100 µM, the TGI [5] was 90.2 µM and the TGI [6] was greater than 100 µM. The TGI [7] was greater than 100 µM, the TGI [8] was greater than 100 µM and the TGI [9] was greater than 100 µM. It also gave a TGI [10] greater than 100 µM, a TGI [11] greater than 100 µM and a TGI [12] greater than 100 µM. It also gave a TGI [13] greater than 100 µM, a TGI [14] greater than 100 µM and a TGI [15] greater than 100 µM. For the same compound, the TGI [16] was greater than 100 µM, the TGI [17] was greater than 100 µM and the TGI [18] was greater than 100 µM. The TGI [19] was greater than 100 µM, the TGI [20] was greater than 100 µM and the TGI [21] was greater than 41.9 µM. The TGI [22] was greater than 100 µM, the TGI [23] was greater than 100 µM and the TGI [24] was greater than 100 µM. It also gave a TGI [25] greater than 100 µM, a TGI [26] greater than 100 µM and a TGI [27] greater than 100 µM. For the same compound, the TGI [28] was greater than 100 µM, the TGI [29] was greater than 100 µM and the TGI [30] was greater than 100 µM. For the same compound, the TGI [31] was greater than 100 µM, the TGI [32] was greater than 100 µM and the TGI [33] was greater than 100 µM. For the same compound, the TGI [34] was greater than 100 µM, the TGI [35] was greater than 100 µM and the TGI [36] was greater than 100 µM. The TGI [37] was greater than 100 µM, the TGI [38] was greater than 100 µM and the TGI [39] was greater than 100 µM. The TGI [40] was greater than 100 µM, the TGI [41] was greater than 100 µM and the TGI [42] was greater than 100 µM. For the same compound, the TGI [43] was greater than 100 µM, the TGI [44] was greater than 100 µM and the TGI [45] was greater than 100 µM. For the same compound, the TGI [46] was greater than 100 µM, the TGI [47] was greater than 100 µM and the TGI [48] was greater than 100 µM. The TGI [49] was greater than 100 µM, the TGI [50] was greater than 100 µM and the TGI [51] was greater than 100 µM. It also gave a TGI [52] of 97.3 µM, a TGI [53] greater than 100 µM and a TGI [54] greater than 100 µM. It also gave a TGI [55] greater than 100 µM, a TGI [56] greater than 100 µM and a TGI [57] greater than 100 µM.
Work on Cn1c(/C=C/CO)c(CO)c2c1C(=O)C=C(N1CC1)C2=O yielded a TGI [1] of 0.024 µM, a TGI [2] of less than 0.01 µM and a TGI [3] of less than 0.0273 µM. The TGI [4] was 7.21 µM, the TGI [5] was less than 0.0139 µM and the TGI [6] was less than 0.01 µM. For the same compound, the TGI [7] was 0.0236 µM, the TGI [8] was 0.488 µM and the TGI [9] was less than 0.0115 µM. For the same compound, the TGI [10] was less than 0.0124 µM, the TGI [11] was less than 0.011 µM and the TGI [12] was 0.104 µM. It also gave a TGI [13] of 0.178 µM, a TGI [14] of 0.202 µM and a TGI [15] of less than 0.0163 µM. It also gave a TGI [16] of less than 0.01 µM, a TGI [17] of 4.15 µM and a TGI [18] of 0.0936 µM. For the same compound, the TGI [19] was 0.662 µM, the TGI [20] was 0.018 µM and the TGI [21] was 0.682 µM. For the same compound, the TGI [22] was less than 0.01 µM, the TGI [23] was 0.223 µM and the TGI [24] was 0.0224 µM. The TGI [25] was 4.9 µM, the TGI [26] was 0.0253 µM and the TGI [27] was 0.0153 µM. For the same compound, the TGI [28] was less than 0.0107 µM, the TGI [29] was 0.0346 µM and the TGI [30] was 0.0172 µM. The TGI [31] was less than 0.015 µM, the TGI [32] was 0.378 µM and the TGI [33] was 0.0805 µM. It also gave a TGI [34] of 0.0156 µM, a TGI [35] of 0.0639 µM and a TGI [36] of less than 0.018 µM. The TGI [37] was 3.91 µM, the TGI [38] was less than 0.0159 µM and the TGI [39] was 1.02 µM. For the same compound, the TGI [40] was less than 0.01 µM, the TGI [41] was 0.0534 µM and the TGI [42] was 0.0171 µM. For the same compound, the TGI [43] was 0.0561 µM, the TGI [44] was 0.0602 µM and the TGI [45] was 0.197 µM. It also gave a TGI [46] of 0.0102 µM, a TGI [47] of 0.0379 µM and a TGI [48] of 0.0203 µM. For the same compound, the TGI [49] was 0.0369 µM, the TGI [50] was less than 0.01 µM and the TGI [51] was 23.9 µM. For the same compound, the TGI [52] was 0.0588 µM, the TGI [53] was 0.0235 µM and the TGI [54] was 0.0112 µM. For the same compound, the TGI [55] was 0.0101 µM and the TGI [56] was 0.0855 µM.
With O=C(O)CCC(NC(=O)c1ccc(Nc2nc3ccc(C(F)(F)F)cc3nc2-c2ccccc2)cc1)C(=O)O (stereo not given) the TGI [1] was greater than 100 µM, the TGI [2] was greater than 100 µM and the TGI [3] was greater than 100 µM. For the same compound, the TGI [4] was greater than 100 µM, the TGI [5] was greater than 100 µM and the TGI [6] was greater than 100 µM. For the same compound, the TGI [7] was greater than 100 µM, the TGI [8] was greater than 100 µM and the TGI [9] was greater than 100 µM. It also gave a TGI [10] greater than 100 µM, a TGI [11] greater than 100 µM and a TGI [12] greater than 100 µM. For the same compound, the TGI [13] was greater than 100 µM, the TGI [14] was greater than 100 µM and the TGI [15] was greater than 100 µM. It also gave a TGI [16] greater than 100 µM, a TGI [17] greater than 100 µM and a TGI [18] greater than 100 µM. The TGI [19] was greater than 100 µM, the TGI [20] was greater than 100 µM and the TGI [21] was greater than 100 µM. For the same compound, the TGI [22] was greater than 100 µM, the TGI [23] was greater than 100 µM and the TGI [24] was greater than 100 µM. For the same compound, the TGI [25] was greater than 100 µM, the TGI [26] was greater than 100 µM and the TGI [27] was greater than 100 µM. It also gave a TGI [28] greater than 100 µM, a TGI [29] greater than 100 µM and a TGI [30] greater than 100 µM. It also gave a TGI [31] greater than 100 µM, a TGI [32] greater than 100 µM and a TGI [33] greater than 100 µM. The TGI [34] was greater than 100 µM, the TGI [35] was greater than 100 µM and the TGI [36] was greater than 100 µM. It also gave a TGI [37] greater than 100 µM, a TGI [38] greater than 100 µM and a TGI [39] greater than 100 µM. For the same compound, the TGI [40] was greater than 100 µM, the TGI [41] was greater than 100 µM and the TGI [42] was greater than 100 µM. It also gave a TGI [43] greater than 100 µM, a TGI [44] greater than 100 µM and a TGI [45] greater than 100 µM. For the same compound, the TGI [46] was greater than 100 µM, the TGI [47] was greater than 100 µM and the TGI [48] was greater than 100 µM. For the same compound, the TGI [49] was greater than 100 µM, the TGI [50] was greater than 100 µM and the TGI [51] was greater than 100 µM. It also gave a TGI [52] greater than 100 µM, a TGI [53] greater than 100 µM and a TGI [54] greater than 100 µM. It also gave a TGI [55] greater than 100 µM, a TGI [56] greater than 100 µM and a TGI [57] greater than 100 µM.
